Reference: patent US11445912B2, “Robust myocardial blood oxygen level dependent magnetic resonance imaging with long acting coronary vasodilators” (Cedars-Sinai Medical Center, priority 2015, dated 2022)
Read-outs that look alike come from different tables or passages of the source.

Legend:
[1] = cited from earlier work; for terminal half-life: extended vasodilatory state
Canines [2] = experiment: 13N-ammonia PET myocardial blood flow at rest and post regadenoson, PET/MR (Example 1); assay type: in vivo
Description: (§1) Canines (n=7) were studied in a PET/MR system. MR acquisitions were used to generate short-axis 2D T2 maps; and the PET acquisitions following ^[…]-ammonia infusion were used to quantify myocardial blood flow (MBF). Initially, 2D T2 maps and PET signals were acquired at rest. Subsequently, regadenoson (2.5 μg/kg) was administrated. T2 maps were acquired at 2- and 10-mins p.r.a and PET signals were acquired at 10-mins p.r.a. Standard deviation (a) of myocardial T2 values was measured at rest, 2- and 10-mins p.r.a from T2 maps and were used to determine Myocardial BOLD Variability (MBV, defined as σT2(stress)/σT2(rest)) at 2- and 10-min p.r.a. Similarly, using the mean T2 values, Myocardial BOLD Response (MBR, defined as T2(stress)/T2(rest)) was computed at 10-mins p.r.a. PET images were analyzed with qPET software to determine MBF and MPR at rest and 10-mins p.r.a and were regressed against MBR.

Canines [3] = experiment: Myocardial BOLD CMR, 2D T2 maps post regadenoson (Example 1); assay type: in vivo
Description: as §1

healthy human volunteers = experiment: Repeated BOLD CMR, coronary dynamic parameters from mono-exponential model (Example 2); assay type: in vivo; details: global myocardium
Description: (§2) BOLD images were acquired at different time points before and after regadenoson administration to sample the rest and stress images, respectively. After bolus regadenoson injection, multiple stress images were acquired to sample the coronary dynamics curve for 30 minutes. All stress images were registered to the rest images with a non-rigid motion correction algorithm (Avants B B, Tustison N J, Song G, Cook P A, Klein A, Gee J C. A reproducible evaluation of ANTs similarity metric performance in brain image registration. Neuroimage 2011; 54:2033-44) to correct for motion-induced miss match between acquisitions. Motion corrected images were used to extract the CDPs throughout the stress period using a mono-exponential model (Felmlee M A, Morris M E, Mager D E. Mechanism-based pharmacodynamic modeling. Methods in molecular biology 2012; 929:583-600) (T2(t)=T2o+ΔT2max exp(−t/τ)). A flow chart of the experimental setup is depicted in FIG. 4.
(§3) In healthy volunteers and intact dogs, global CDPs were extracted from the myocardium. Maximum BOLD response was derived with CDPs (MBRCDP=ΔT2max/T2o×100%) and compared with conventional myocardial BOLD response (MBRcon), which was derived as the T2 elevation from rest to 2 minutes after regadenoson administration (MBRconv=[(StressT2^2min/Rest T2)−1)×100%]. In the animals with coronary impairment, CDPs were measured in segmental and pixel-wise manner. Pixel-wised CDPs between remote and affected territories were segmented using SVMs to investigate the capability of separating diseased myocardium from the remote regions. In addition, CDPs were derived from subsets of BOLD images with different starting time points to probe the optimized setup of detecting affected territories. Details of each step are described in the following sections.
(§4) Experimental Subjects and animal preparation: We studied healthy human volunteers (n=6), intact dogs (n=7) and dogs with chronic infarctions (n=1). During imaging studies in animals, all animals were mechanically ventilated and anesthetized with propofol. In the dog with chronic infarction, the animal underwent an open chest ischemia reperfusion protocol (3 hours of ischemia followed by reperfusion), followed by 8-week recovery prior to imaging.
(§5) Image acquisition: Human studies were performed on a 3.0 T clinical MM system (MAGNETOM Verio®, Siemens Healthcare, Erlangen, Germany) and the animals were studied on a 3T whole body PET MR system (Biograph mMR, Siemens Healthcare, Erlangen, Germany). In all subjects, BOLD images were acquired with a commercially available 2D T2 mapping sequence {Giri, 2009 #820}. In all studies, after localization and shimming, rest BOLD images were acquired under baseline followed by a bolus regadenoson injection. Post regadenoson administration, BOLD CMR images were acquired between 2 to 30 minutes after regadenoson injection with an interval of 1-5 minutes depending on the physiological and imaging condition. In the animal with chronic infarction, simultaneous ^13N ammonia PET images were acquired at 2 minutes post regadenoson administration to validate the hyperemic response from regadenoson. In addition, LGE images were acquired to identify the infarcted territories after all BOLD acquisitions were completed. Block representations of imaging protocols are illustrated in FIG. 5. Imaging parameters are listed as the following: T2 mapping: TR/TE=2.9 ms/1.1 ms, iPAT=2, partial Fourier=3/4, FA=35°, BW=1184 Hz/pixel, 86 lines per heartbeat (simulated rate 60/s), trigger pulse=4, FOV=288×360 mm^2, matrix size=154×192, and voxel size=2.5×1.7×6.0 mm^3, T2 preparation (as TEs)=0, 24, 55 ms.
(§6) Image Processing: The series of BOLD images acquired post regadenoson administration were aligned using the advanced normalization tools (ANTS software). Rest images were used as the reference for registration. […]

intact dogs [4] = experiment: as above; assay type: in vivo; details: global myocardium
Description: as §2, §3, §4, §5, §6

[5] = system: dog with chronic infarction; experiment: Repeated BOLD CMR, coronary dynamic parameters in remote and affected myocardium (Example 2); assay type: in vivo
Description: as §2, §3, §4
Image acquisition: Human studies were performed on a 3.0 T clinical MM system (MAGNETOM Verio®, Siemens Healthcare, Erlangen, Germany) and the animals were studied on a 3T whole body PET MR system (Biograph mMR, Siemens Healthcare, Erlangen, Germany). In all subjects, BOLD images were acquired with a commercially available 2D T2 mapping sequence {Giri, 2009 #820}. In all studies, after localization and shimming, rest BOLD images were acquired under baseline followed by a bolus regadenoson injection. […]

[6] = system: dog with chronic infarction; experiment: 13N ammonia PET myocardial perfusion reserve in infarcted animal (Example 2); assay type: in vivo; details: PET at 2 minutes post regadenoson
Description: as §5, with “Imaging parameters are listed as the following: T2 mapping: TR/TE=2.9 ms/1.1 ms, iPAT=2, partial Fourier=3/4, FA=35°, BW=1184 Hz/pixel, 86 lines per heartbeat (simulated rate 60/s), trigger pulse=4, FOV=288×360 mm^2, matrix size=154×192, and voxel size=2.5×1.7×6.0 mm^3, T2 preparation (as TEs)=0, 24, 55 ms.” left out
In addition, simultaneously acquired quantitative PET images were used to derive myocardial perfusion reserve (MPR) with a clinical validated software (QPET, Cedars-Sinai Medical Center, Los Angeles) and to validate the reduced MPR in the infarcted myocardium.

intact dogs [7] = experiment: Repeated BOLD CMR with coronary relaxation model (Example 3); assay type: in vivo
Description: (§7) Intact (n=7) and infarcted (n=2) dogs were studied in a hybrid PET/MR system. 2D BOLD (T2 maps), LGE and ^13N—NH3 PET images were acquired at rest and at post-regadenoson administration (p.r.a.). T2 maps post-regadenoson administration (p.r.a.) were repeatedly acquired over 30 mins and were registered to T2 maps at rest. These time-dependent T2 maps were then used to model the coronary relaxation as T2(t)=T2o+ΔT2max exp(−t/τ), where T2o, ΔT2max and τ are fit parameters with T2o=T2 at rest; ΔT2max=maximal T2 change from rest; and τ=time constant of coronary relaxation. Maximum BOLD response from CRM was estimated (MBRCRM=ΔT2max/T2o×100%) and compared to conventional myocardial BOLD response [MBRcon=(T2^2min−Rest T2)/Rest T2×100%, where T2^2min=myocardial T2 at 2 min p.r.a and Rest T2=T2 prior to regadenoson injection] using a regression model. In infarcted dogs, affected zones were identified using Late Gadolinium Enhancement (LGE). BOLD contrast-to-noise ratio (CNR) between remote and affected zones (CNR=(μMBRRemote−μMBRAffected)/σMBRRemote, where μ and σ are the mean and std dev) were estimated for MBRCRM and MBRcon and compared. MBRs were validated with perfusion reserve from PET myocardial perfusion reserve (MPR).

intact dogs [8] = experiment: 13N-NH3 PET myocardial perfusion reserve (Example 3); assay type: in vivo; details: p.r.a
Description: as §7

infarcted dogs [9] = experiment: Repeated BOLD CMR with coronary relaxation model, remote vs affected zones (Example 3); assay type: in vivo
Description: as §7

infarcted dogs [10] = experiment: 13N-NH3 PET myocardial perfusion reserve, remote vs affected zones (Example 3); assay type: in vivo
Description: as §7

[11] = 10-min post regadenoson administration, 2.5 μg/kg
[12] = affected (infarcted) myocardium

## CCNC(=O)[C@H]1O[C@@H](n2cnc3c(N)nc(C#CC[C@H]4CC[C@H](C(=O)OC)CC4)nc32)[C@H](O)[C@@H]1O [apadenoson]
[1]
  terminal half-life: 5 min

## Nc1nc(N/N=C/C2CCCCC2)nc2c1ncn2[C@@H]1O[C@H](CO)[C@@H](O)[C@H]1O [binodenoson]
[1]
  terminal half-life: 10 to 120 min

## CNC(=O)c1cnn(-c2nc(N)c3ncn([C@@H]4O[C@H](CO)[C@@H](O)[C@H]4O)c3n2)c1 [regadenoson]
Canines [2]; 10-15 minutes post regadenoson infusion
  myocardial blood flow relative to rest: above 2 fold
Canines [2]; [11]
  myocardial blood flow (MBF): 1.8 ± 0.9 mL/min/g
Canines [3]; [11]
  Myocardial T2: 40.4 ± 1.7 ms
Canines [3]; 10 min post regadenoson administration
  T2 elevation relative to rest: 9%
Healthy human volunteers
  MBRCDP (ΔT2max/T2o×100%): 26.5%
  MBRcon (T2 elevation from rest to 2 minutes after regadenoson): 12.0%
  ΔT2max (maximum BOLD stimulation amplitude): 14.7 ms
  τ (coronary relaxation time constant): 35.6 min
Intact dogs [4]
  MBRCDP (ΔT2max/T2o×100%): 25.8%
  MBRcon (T2 elevation from rest to 2 minutes after regadenoson): 10.1%
  ΔT2max (maximum BOLD stimulation amplitude): 8.6 ms
  τ (coronary relaxation time constant): 38.5 min
[5]; Remote myocardium
  coronary relaxation time constant (τ): 29.6 min
  maximum T2 response (ΔT2max): 5.4 ms
[5]; [12]
  coronary relaxation time constant (τ): 54.09 min
  maximum T2 response (ΔT2max): 1.6 ms
[6]; infarcted territories
  myocardial perfusion reserve (MPR): 1.9
[6]; remote myocardium
  myocardial perfusion reserve (MPR): 3.7
Intact dogs [7]
  MBRCRM (ΔT2max/T2o×100%): 27±16%
Intact dogs [7]; 2 min p.r.a
  MBRcon ((T2 2min−Rest T2)/Rest T2×100%): 12±6%
Intact dogs [7]; CRM fit
  ΔT2max (maximal T2 change from rest): 14.7 ± 5.8 ms
  τ (time constant of coronary relaxation): 35.5 ± 26.8 min
Intact dogs [8]
  PET myocardial perfusion reserve (MPR): 3.0±0.6
Infarcted dogs [9]; Affected region
  MBRCRM: 1±10%
  MBRcon: 5±7%
Infarcted dogs [9]; Remote region
  MBRCRM: 27±6%
  MBRcon: 15±5%
Infarcted dogs [10]; Affected region
  MPRaffected (PET): 1.9±0.7
Infarcted dogs [10]; Remote region
  MPRremote (PET): 3.7±0.6
[1]
  terminal half-life: 33 to 108 min
[1]; in vivo
  second phase of pharmacological half-life: approximately 30 minutes

## OCCN(CCO)c1nc(N2CCCCC2)c2nc(N(CCO)CCO)nc(N3CCCCC3)c2n1 [dipyridamole]
[1]; units printed within the range
  terminal half-life: 40 to 600 min
